Results on one compound are retold here after patent US20240174633A1, “CRYSTALLINE FORMS OF (4S)-24-CHLORO-4-ETHYL-73-FLUORO-35-METHOXY-32,5-DIOXO-14-(TRIFLUORO-METHYL)-32H-6-AZA-3(4,1)-PYRIDINA-1(1)-[1,2,3]TRIAZOLA-2(1,2),7(1)-DIBENZENAHEPTAPHANE-74-CARBOXAMIDE” (Bayer Aktiengesellschaft, priority 2021, published 2024).

Experiment [1] has as its target human factor XIa (Homo sapiens (Human), UniProt P03951). The experiment in a line: Measurement of FXIa inhibition (fluorogenic peptide substrate). The class given is biochemical. Conditions: substrate Boc-Glu(OBzl)-Ala-Arg-AMC. On the procedure:
The factor XIa inhibition of the substances according to the invention is determined using a biochemical test system which utilizes the reaction of a peptidic factor XIa substrate to determine the enzymatic activity of human factor XIa. Here, factor XIa cleaves from the peptidic factor XIa substrate the C-terminal aminomethylcoumarin (AMC), the fluorescence of which is measured. The determinations are carried out in microtitre plates.
(§1) Test substances are dissolved in dimethyl sulfoxide and serially diluted in dimethyl sulfoxide (3000 μM to 0.0078 μM; resulting final concentrations in the test: 50 µM to 0.00013 μM). In each case 1 μl of the diluted substance solutions is placed into the wells of white microtitre plates from Greiner (384 wells). […] After 15 min of incubation, the enzyme reaction is started by addition of 20 μl of the factor XIa substrate Boc-Glu(OBzl)-Ala-Arg-AMC dissolved in assay buffer (10 μM in assay buffer) from Bachem, the mixture is incubated at room temperature (22° C.) for 30 min and fluorescence is then measured (excitation: 360 nm, emission: 460 nm). The measured emissions of the test batches with test substance are compared to those of control batches without test substance (only dimethyl sulfoxide instead of test substance in dimethyl sulfoxide), and IC50 values are calculated from the concentration/activity relationships. […]

The target in experiment [2] is human plasma kallikrein (Homo sapiens (Human), UniProt P03952). In words: Determination of the plasma kallikrein activity (fluorogenic peptide substrate). Format: biochemical. Conditions: substrate H-Pro-Phe-Arg-AMC. On the procedure:
To determine the plasma kallikrein inhibition of the substances according to the invention, a biochemical test system is used which utilizes the reaction of a peptidic plasma kallikrein substrate to determine the enzymatic activity of human plasma kallikrein. Here, plasma kallikrein cleaves from the peptidic plasma kallikrein substrate the C-terminal aminomethylcoumarin (AMC), the fluorescence of which is measured. The determinations are carried out in microtitre plates.
as §1, with “[…];” for “μM;”, “μM” for “µM”, “the” for “the factor XIa”, “H-Pro-Phe-Arg-AMC” for “Boc-Glu(OBzl)-Ala-Arg-AMC”

human factor XIa, sequence (P03951 388-625): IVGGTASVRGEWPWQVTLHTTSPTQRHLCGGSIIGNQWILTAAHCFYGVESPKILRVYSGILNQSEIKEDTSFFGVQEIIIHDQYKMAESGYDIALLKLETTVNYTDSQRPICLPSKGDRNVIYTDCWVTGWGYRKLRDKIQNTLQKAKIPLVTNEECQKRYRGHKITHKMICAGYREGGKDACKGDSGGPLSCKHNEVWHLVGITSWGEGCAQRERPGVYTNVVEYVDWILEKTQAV
human factor XIa, sequence (P03951 19-387 partner): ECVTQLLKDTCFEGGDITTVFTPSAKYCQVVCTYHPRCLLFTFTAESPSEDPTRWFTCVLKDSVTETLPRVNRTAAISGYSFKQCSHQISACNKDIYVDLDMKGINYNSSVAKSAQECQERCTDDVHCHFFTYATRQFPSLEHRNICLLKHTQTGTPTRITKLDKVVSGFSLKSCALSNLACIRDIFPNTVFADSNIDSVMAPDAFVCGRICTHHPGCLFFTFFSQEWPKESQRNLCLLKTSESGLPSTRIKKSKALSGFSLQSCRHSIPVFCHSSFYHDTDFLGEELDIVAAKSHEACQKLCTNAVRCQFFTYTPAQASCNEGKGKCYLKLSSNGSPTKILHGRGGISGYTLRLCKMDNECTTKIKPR
human plasma kallikrein, sequence (P03952 391-638): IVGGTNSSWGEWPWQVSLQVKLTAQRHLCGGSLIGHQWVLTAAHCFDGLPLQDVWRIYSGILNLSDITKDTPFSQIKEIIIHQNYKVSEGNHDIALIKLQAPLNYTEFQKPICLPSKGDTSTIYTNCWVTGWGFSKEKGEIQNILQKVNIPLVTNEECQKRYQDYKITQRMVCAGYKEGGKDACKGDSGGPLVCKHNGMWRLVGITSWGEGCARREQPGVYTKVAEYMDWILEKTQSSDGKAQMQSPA
human plasma kallikrein, sequence (P03952 20-390 partner): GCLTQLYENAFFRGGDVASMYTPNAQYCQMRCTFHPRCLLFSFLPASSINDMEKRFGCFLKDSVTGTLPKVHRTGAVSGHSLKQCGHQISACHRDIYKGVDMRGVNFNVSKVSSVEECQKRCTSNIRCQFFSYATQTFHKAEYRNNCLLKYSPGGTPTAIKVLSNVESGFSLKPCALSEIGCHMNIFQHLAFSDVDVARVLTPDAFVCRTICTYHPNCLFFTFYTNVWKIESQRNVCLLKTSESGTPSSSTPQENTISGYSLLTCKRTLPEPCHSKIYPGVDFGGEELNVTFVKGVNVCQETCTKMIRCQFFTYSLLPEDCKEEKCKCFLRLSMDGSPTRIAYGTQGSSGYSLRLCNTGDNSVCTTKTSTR

On to `COc1cn([C@@H](C)C(=O)Nc2ccc(C(N)=O)c(F)c2)c(=O)cc1-c1c(-n2cc(C(F)(F)F)nn2)ccc(Cl)c1F` [Example 2.4, 4-({(2S)-2-[4-{3-Chloro-2-fluoro-6-[4-(trifluoromethyl)-1H-1,2,3-triazol-1-yl]phenyl}-5-methoxy-2-oxopyridin-1(2H)-yl]propanoyl}amino)-2-fluorobenzamide], for which the IC50 (usually the midpoint of a concentration-inhibition curve) worked out at 1.2 nM in experiment [1] and 3.4 nM in experiment [2].
